From paper PMC4308083, “Cytokine-Induced Loss of Glucocorticoid Function: Effect of Kinase Inhibitors, Long-Acting β2-Adrenoceptor Agonist and Glucocorticoid Receptor Ligands” (PLoS ONE, 2015)
Where two headings read alike, the source gives them in different places.

How the values were obtained:
[1] = target: T1, glucocorticoid receptor (NR3C1) (Homo sapiens, UniProt P04150); assay: 2×GRE luciferase reporter activation by NR3C1 ligands in BEAS-2B cells; assay type: cell-based; conditions: for EC50: pEC50 (M)
T1 construct: BEAS-2B cells stably transfected with a glucocorticoid response element (2×GRE) driven luciferase reporter plasmid; endogenous in cells; host or cells: BEAS-2B human bronchial epithelial cells stably carrying a 2×GRE luciferase reporter
T1 sequence (P04150 1-777): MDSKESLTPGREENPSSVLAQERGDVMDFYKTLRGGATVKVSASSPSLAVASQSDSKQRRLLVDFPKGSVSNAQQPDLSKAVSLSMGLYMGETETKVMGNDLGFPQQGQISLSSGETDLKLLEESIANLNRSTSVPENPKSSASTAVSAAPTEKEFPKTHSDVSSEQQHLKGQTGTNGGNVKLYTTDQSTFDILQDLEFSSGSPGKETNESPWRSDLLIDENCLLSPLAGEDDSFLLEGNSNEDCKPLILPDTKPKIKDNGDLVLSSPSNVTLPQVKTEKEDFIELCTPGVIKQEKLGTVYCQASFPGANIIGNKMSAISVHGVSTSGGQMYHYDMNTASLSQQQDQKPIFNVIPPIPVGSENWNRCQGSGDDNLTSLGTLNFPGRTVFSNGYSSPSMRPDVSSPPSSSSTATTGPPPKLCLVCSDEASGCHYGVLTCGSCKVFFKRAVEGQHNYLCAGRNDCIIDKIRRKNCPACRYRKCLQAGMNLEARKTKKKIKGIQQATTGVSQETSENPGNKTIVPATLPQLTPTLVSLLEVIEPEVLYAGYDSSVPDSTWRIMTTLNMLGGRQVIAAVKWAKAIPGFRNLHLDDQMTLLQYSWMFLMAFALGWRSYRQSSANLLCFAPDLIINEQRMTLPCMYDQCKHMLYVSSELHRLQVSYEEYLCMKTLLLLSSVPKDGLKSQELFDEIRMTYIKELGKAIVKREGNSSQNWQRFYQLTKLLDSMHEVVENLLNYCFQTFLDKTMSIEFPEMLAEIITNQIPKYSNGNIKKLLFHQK
Description: (§1) BEAS-2B cells stably transfected with a glucocorticoid response element (2×GRE) driven luciferase reporter plasmid, pGL3.neo.TATA.neo [23], were cultured in medium containing 0.25 mg/ml G-418 (Promega, Madison, WI). Cells were grown to confluence in 24 or 48 well plates and incubated overnight in serum-free media prior to experiments. Cells were harvested in reporter lysis buffer and luciferase assays performed according to the manufacturer’s instructions (Firefly Luciferase Assay Kit; Biotium; Hayward, CA) using a 20/20n luminometer (Promega).
Cells were harvested 6 h after NR3C1 ligand addition for luciferase assay.
(§2) Cells were harvested after 6 h for luciferase assays. Data (n = 7), expressed as fold activation, are plotted as means ± S.E. Lines of best fit were added in panel B. Statistical analyses were performed by ANOVA with a Dunnett’s test comparing each NR3C1 ligand alone versus in the presence of TNF and/or Form. *, P<0.05; **, P<0.01; ***, P<0.001.

[2] = tested on: CDKN1C, DUSP1, RGS2 and TSC22D3 mRNA in BEAS-2B cells; assay: RT-PCR of glucocorticoid-inducible gene expression in BEAS-2B cells
Description: Cells were harvested 6 h after Dex addition.
BEAS-2B cells were pre-treated for 30 min with either 10 or 3 μM of the JNK MAPK inhibitor JNK inhibitor VIII (JNK) or 10 μM of the IKK2 inhibitor PS-1145 (PS), before addition of 10 ng/ml tumor necrosis factor-α (TNF).
Cells were harvested 6 h after NR3C1 ligand addition.

2×GRE reporter = assay: Modulation of dexamethasone/NR3C1 ligand-induced 2×GRE reporter activation (kinase inhibitors, TNF, formoterol) in BEAS-2B cells; assay type: cell-based, human; conditions: 30 min pre-treatment, dexamethasone, 6 h (Fig. 3B, Fig. 4); JNK inhibitor VIII only at 30 μM; PKC inhibitors above 1 μM
Description: as §1
Data (n = 7), expressed as a percentage of Dex activation, are plotted as means ± S.E. BEAS-2B 2×GRE cells were pre-treated for 30 min with the indicated concentrations of B. PS or JNK or C. JNK in the presence or absence of 10 μM PS, before addition of 10 ng/ml TNF. After 1 h, 10 μM Dex was added and cells harvested 6 h later for luciferase assay. […] D+T indicates Dex plus TNF treatment.
Data (n = 3–4), expressed as fold activation, are plotted as means ± S.E. D+T indicates Dex plus TNF treatment.
as §2

AKT1 phosphorylation = assay: Western blot of AKT1 phosphorylation in BEAS-2B cells; assay type: cell-based; conditions: Homo sapiens, 30 min pre-treatment, TNF 10 ng/ml 30 min, western blot (S2 Fig.), read-out: EC50 for block of AKT1 phosphorylation
From the text: Cells were lysed in 1× Laemmli buffer supplemented with phosphatase inhibitors (Sigma-Aldrich) and 1× complete protease inhibitor cocktail (Roche; Indianapolis, IN), size fractionated on 12% acrylamide gels and subsequently electro-transferred onto Hybond enhanced chemiluminescent membranes (GE Healthcare; Waukesha, WI). Membranes were blocked in 5% milk in tris-buffered saline containing 1% tween 20 and probed with antibodies against phospho-jun proto-oncogene (pJUN; pc-Jun) (9164; Cell Signaling Technology; Danvers, MA), nuclear factor of kappa light polypeptide gene enhancer in B-cells inhibitor, alpha (NFKBIA; IκBα) (sc-371; Santa Cruz Biotechnology; Dallas, TX), phospho-NFKBIA (9246; Cell Signaling Technology), phospho-AKT1 (9271S; Cell Signaling Technology), AKT (9272S; Cell Signaling Technology) and GAPDH (4699–9555(ST); AbD Serotec; Raleigh, NC). After washing, membranes were incubated with horseradish peroxidase-conjugated anti-rabbit (111–035–003; Jackson ImmunoResearch Laboratories Inc; West Grove, PA) or anti-mouse immunoglobulin (115–035–003; Jackson ImmunoResearch Laboratories Inc). Detection was by enhanced chemiluminescence (Pierce ECL Western Blotting Substrate; Thermo Fisher Scientific Inc.; Rockford, IL) and visualization by autoradiography.
Cells were harvested after 30 min for western blotting and probed for phospho v-akt murine thymoma viral oncogene homolog 1 (pAKT1), AKT1 and glyceraldehyde 3-phosphate dehydrogenase (GAPDH). (PDF) Click here for additional data file.

[3] = BEAS-2B 2×GRE reporter, TNF 10 ng/ml pre-treatment 1 h, 6 h, percent of 1 μM dexamethasone
[4] = BEAS-2B 2×GRE reporter, no TNF, 6 h, percent of 1 μM dexamethasone
[5] = 100 nM ligand, 10 nM formoterol, 6 h (Fig. 8)

**Q.** With `CCCC1O[C@@H]2C[C@H]3[C@@H]4CCC5=CC(=O)C=C[C@]5(C)[C@H]4[C@@H](O)C[C@]3(C)[C@]2(C(=O)CO)O1` (some centres unmarked) [Budesonide] as the molecule, how does the “E max (% Dex), Naive” value [1] read?
**A.** 109.9 ± 2.6 % Dex

**Q.** What does the source list for `C[C@]12C=CC(=O)C=C1CC[C@@H]1[C@@H]2[C@@H](O)C[C@@]2(C)[C@H]1C[C@H]1O[C@@H](C3CCCCC3)O[C@]12C(=O)CO` [Des-ciclesonide]?
**A.** Agonist type on 2×GRE reporter relative to dexamethasone ([1]; BEAS-2B 2×GRE reporter): partial agonists; E max (% Dex), +TNF [1, 3]: 43.1 ± 1.0 % Dex; E max (% Dex), Naive [1, 4]: 76.0 ± 2.0 % Dex; EC50 ([1]; +TNF, BEAS-2B 2×GRE reporter, TNF 10 ng/ml pre-treatment 1 h, 6 h): 3.16e-09 M; EC50 ([1]; Naive, BEAS-2B 2×GRE reporter, no TNF, 6 h): 2.51e-09 M; RGS2 mRNA expression in the presence of formoterol relative to dexamethasone [2, 5]: significantly lower; TSC22D3 mRNA fold induction ([2]; 6 h, 1 μM dexamethasone, 100 nM other ligands (Fig. 8, n = 5)): 71 fold

**Q.** Which “E max (% Dex), +TNF” value [1, 3] does the source give for `C[C@@H]1C[C@H]2[C@@H]3CCC4=CC(=O)C=C[C@]4(C)[C@@]3(F)[C@@H](O)C[C@]2(C)[C@@]1(O)C(=O)CO` [Dexamethasone] here?
**A.** 58.7 ± 3.2 % Dex

**Q.** What about the “E max (% Dex), Naive” value [1, 4] of the same molecule?
**A.** 100 ± 3.2 % Dex

**Q.** Which “E max (% Dex), +TNF” value [1, 3] does the source give for `CCC(=O)O[C@]1(C(=O)SCF)[C@H](C)C[C@H]2[C@@H]3C[C@H](F)C4=CC(=O)C=C[C@]4(C)[C@@]3(F)[C@@H](O)C[C@@]21C` [Fluticasone Propionate] here?
**A.** 51.0 ± 2.8 % Dex

**Q.** What about the “E max (% Dex), Naive” value [1, 4] of the same molecule?
**A.** 111.2 ± 4.3 % Dex

**Q.** `CN(C)CCCn1cc(C2=C(c3c[nH]c4ccccc34)C(=O)NC2=O)c2ccccc21` [GF109203X] was tested. Which “Effect on dexamethasone-induced 2×GRE reporter activation (concentration-response)” value (“Effect” below) (2×GRE reporter) did it give?
**A.** enhanced

**Q.** `C[C@@H]1C[C@H]2[C@@H]3C[C@H](F)C4=CC(=O)C=C[C@]4(C)[C@@]3(F)[C@@H](O)C[C@]2(C)[C@@]1(OC(=O)C1C(C)(C)C1(C)C)C(=O)OCC#N` [GW870086X] was tested. Which “Agonist type on 2×GRE reporter relative to dexamethasone” value ([1]; BEAS-2B 2×GRE reporter) did it give?
**A.** partial agonists

**Q.** What about the “pEC50 (M), +TNF” value ([1]; BEAS-2B 2×GRE reporter, TNF 10 ng/ml pre-treatment 1 h, 6 h) of the same molecule?
**A.** 8.0 ± 0.2 * M

**Q.** And the “E max (% Dex), +TNF” value [1, 3]?
**A.** 29.8 ± 1.4 % Dex

**Q.** And the “pEC50 (M), Naive” value ([1]; BEAS-2B 2×GRE reporter, no TNF, 6 h)?
**A.** 8.3 ± 0.1 M

**Q.** And the “E max (% Dex), Naive” value [1, 4]?
**A.** 50.1 ± 1.1 % Dex

**Q.** And the “RGS2 mRNA expression in the presence of formoterol relative to dexamethasone” value [2, 5]?
**A.** significantly lower

**Q.** What about the “TSC22D3 mRNA expression in the presence of formoterol, or TNF plus formoterol, relative to dexamethasone” value [2, 5] of the same molecule?
**A.** significantly lower

**Q.** For `Cn1c2ccccc2c2c3c(c4c5ccccc5n(CCC#N)c4c21)CNC3=O` [Gö6976], which “Effect” value (2×GRE reporter) is on record?
**A.** reduced

**Q.** Which EC50 (AKT1 phosphorylation) does the source give for `O=c1cc(N2CCOCC2)oc2c(-c3ccccc3)cccc12` [LY294002, 2-(4-morpholinyl)-8-phenyl-4H-1-benzopyran-4-one] here?
**A.** ~900 nM

**Q.** And the “Effect” value (2×GRE reporter)?
**A.** less effect
